The test system of series [1] is Ca-Ski. The experiment in a line: Antiproliferative activity against human Ca Ski cells assessed as inhibition of cell viability incubated for 24 hrs by CCK8 assay. Format: functional, cell-based. (Tetrazolium assays rely on reduction of a dye to a coloured formazan, in cell work by metabolically active cells.)
Series [2] has as its system HeLa. The series is described as follows: Induction of morphological changes in human HeLa cells assessed as decrease in cell adherence to culture dish at 0.6 to 2.4 uM by microphotographic analysis. The following applies: dose 0.6-2.4 µM. Format: functional, cell-based.
For another series, the system named is C-33-A. The experiment in a line: Induction of morphological changes in human C-33-A cells assessed as increase in appearance of round cells at 0.3 to 1.2 uM by microphotographic analysis. It is filed as functional, cell-based. The settings on record: dose 0.3-1.2 µM.
Series [3] concerns HeLa. The series is described as follows: Induction of apoptosis in human HeLa cells assessed as necrotic cells at 1.2 uM preincubated with Z-VAD-FMK for 1 hrs followed by compound addition and measured after 24 hrs by Annexin V-FITC/PI staining based flow cytometric analysis (reference value: 2.16 %). Format: functional.
In series [4] the test system is Ca-Ski. The experiment in a line: Induction of apoptosis in human Ca Ski cells assessed as early apoptotic cells at 0.5 uM incubated for 24 hrs by Annexin V-FITC/PI staining based flow cytometric analysis (reference value: 4.76 %). It is filed as functional. In general terms: In flow cytometry, cells or beads pass a laser one at a time.
Series [5] has as its system Ca-Ski. The experiment in a line: Induction of apoptosis in human Ca Ski cells assessed as late apoptotic cells at 0.5 uM incubated for 24 hrs by Annexin V-FITC/PI staining based flow cytometric analysis (reference value: 5.33 %). It is filed as functional.
Series [6] relates to Ca-Ski. The experiment in a line: Induction of apoptosis in human Ca Ski cells assessed as necrotic cells at 0.5 uM incubated for 24 hrs by Annexin V-FITC/PI staining based flow cytometric analysis (reference value: 3.15 %). Format: functional.
Series [7] deals with Ca-Ski. The series is described as follows: Induction of apoptosis in human Ca Ski cells assessed as early apoptotic cells at 1 uM preincubated with Z-VAD-FMK for 1 hrs followed by compound addition and measured after 24 hrs by Annexin V-FITC/PI staining based flow cytometric analysis (reference value: 2.91 %). It is filed as functional.
For series [8], the system named is Ca-Ski. The series is described as follows: Effect on cleaved caspase 3 expression level in human Ca Ski cells at 0.25 to 1 uM incubated for 24 hrs by Western blot analysis. The following applies: dose 0.25-1 µM. Format: functional, cell-based.
For series [9], the system named is HeLa. The series is described as follows: Induction of autophagy in human HeLa cells transfected with mRFP-GFP-LC3 plasmid assessed as decrease in GFP fluorescence at 0.4 to 0.8 uM incubated for 24 hrs by DAPI staining based fluorescence confocal microscopic analysis. It is filed as functional, cell-based. The following applies: dose 0.4-0.8 µM.
Series [10] has as its system Ca-Ski. The experiment in a line: Induction of autophagy in human Ca Ski cells transfected with mRFP-GFP-LC3 plasmid assessed as decrease in GFP fluorescence at 0.3 to 0.6 uM incubated for 24 hrs by DAPI staining based fluorescence confocal microscopic analysis. It is filed as functional, cell-based. The following applies: dose 0.3-0.6 µM.
Series [11] has as its system Ca-Ski. The experiment in a line: Induction of autophagolysosome formation in human Ca Ski cells transfected with mRFP-GFP-LC3 plasmid assessed as increase in ratio of mRFP to GFP puncta at 0.3 to 0.6 uM incubated for 24 hrs. It is filed as functional, cell-based. The settings on record: dose 0.3-0.6 µM.
Series [12] relates to HeLa. The experiment in a line: Induction of autophagy in human HeLa cells assessed as increase in p62 level at 0.3 to 1.2 microM incubated for 24 hrs by Western blot analysis. Format: functional, cell-based. The following applies: dose 0.3-1.2 µM. In general terms: A western blot detects proteins with antibodies after separation by electrophoresis.
The subject of series [13] is Ca-Ski. The series is described as follows: Antiproliferative activity against ATG7 deficient human Ca Ski cells assessed as inhibition of cell viability incubated for 24 hrs by CCK8 assay. It is filed as functional, cell-based.
Series [14] has as its system HeLa. The series is described as follows: Inhibition of colony formation in ATG7 deficient human HeLa cells at 0.15 to 0.6 uM incubated for 24 hrs by crystal violet staining based analysis. The following applies: dose 0.15-0.6 µM. It is filed as functional, cell-based.
Series [15] concerns HeLa. The experiment in a line: Antitumor activity against human HeLa cells xenografted in female BALB/c mouse assessed as inhibition of tumor progression at 4 to 8 mg/kg administered every four days and measured after 26 days by imaging analysis. The settings on record: dose 4-8 mg/kg, time 26.0 day. Format: functional, organism-based.
Series [16] in a line: Toxicity in female BALB/c mouse xenografted with human HeLa cells assessed as effect on WBC level at 4 to 8 mg/kg administered every four days and measured after 26 days. Format: organism-based. The following applies: in vivo, 624 h, dose 4-8 mg/kg, time 26 day.
Series [17] has as its system Ca-Ski. The experiment in a line: Induction of autophagy in human Ca Ski cells transfected with mRFP-GFP-LC3 plasmid assessed as appearance of RFP puncta clusters as aggregates in cytoplasm at 25 uM incubated for 24 hrs by DAPI staining based fluorescence confocal microscopic analysis. Format: functional, cell-based.

The IC50 is the concentration needed to halve the response being measured.

Activity calls are given as the source filed them. The calls are words filed in the database; no cut-off is given here.

For `COc1cccc(Nc2ccnc3cc(OCCCCCOc4ccc5c(Nc6cccc(OC)c6)ccnc5c4)ccc23)c1`, the Activity result is “Dose-dependent-effect” in the series on Ca-Ski [1]; 1.49% with HeLa [3]; 8.01% in the series with Ca-Ski [4]; 5.88% in the series with Ca-Ski [5]; 0.64% with Ca-Ski [6]; 5.56% in the series on Ca-Ski [7]. In [16], the Activity result is on record as “Non-toxic”. The IC50 in the series on Ca-Ski [1] stood at 0.775 µM; with Ca-Ski [13], 2.89 µM. Also, the outcome with HeLa [2], in the series with C-33-A, in the series on HeLa [9], in the series on Ca-Ski [10], in the series with Ca-Ski [11] and in the series with HeLa [12] was Active. Besides, the result with HeLa [15] and in the series with Ca-Ski [17] was Active. Moreover, the result in the series with Ca-Ski [8] was inactive. The inhibition result with HeLa [14] is on record as “Minimal_effect”.

Source of the values: ChEMBL document CHEMBL6115007, “Synthesis and in vitro and in vivo evaluation of novel bivalent quinolines as antitumor agents via targeting autophagy in cervical cancer” (Eur J Med Chem, 2025).
